Results published in PubChem BioAssay AID463204 (Broad Institute, 2010).
The source made the active and inactive calls.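 Rule for the calls: active = AC50 no more than ten times the top concentration tested, that is within one log above it; inconclusive = flat curve fit with activity between 30% and 70%, or invalid poor fit; inactive = AC50 beyond ten times the top tested dose.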

What follows are compounds tested on S. cerevisiae Mot1-301 ts growth rescue, BacTiter-Glo ATP luminescence (assay: growth rescue of Mot1-301 ts yeast, confirmation, SUMOylation pathway inhibitor project, whole organism, S. cerevisiae, Mot1-301 ts mutant, luminescence, dose retest (AID 463204);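 note: growth at restrictive 38.5 degrees C of Mot1-301 OY566 strain; actives raise luminescence by restoring growth of the ts mutant at high temperature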).

Compound	AC50
C/C(CC1(O)C(=O)Nc2ccccc21)=N\O (stereo unspecified)	> 42 µM (inactive)
O=S1(=O)C=C(Sc2nnc(-c3ccccc3)o2)c2ccccc21	1.47 µM
CN1C(=O)c2ccc(NC(=S)NC(=O)C(C)(C)C)cc2C1=O	> 42 µM (inactive)
Cc1cc(-c2ccc(Cl)cc2Cl)c(C#N)c(=O)[nH]1	> 42 µM (inactive)
CCOP(=O)(OCC)C(NC(=O)c1cccc(C)c1)C(Cl)(Cl)Cl (stereo unspecified)	> 42 µM (inactive)
CCCOC(=O)c1c(-c2ccc(OC)cc2)oc2ccc(-c3ccc(OC)nc3)cc12	> 42 µM (inactive)
CN(CC(=O)NCc1cccs1)S(=O)(=O)c1cccc2nsnc12	> 42 µM (inactive)
CCS(=O)(=O)N1CCCC(C(=O)NCc2cccnc2)C1 (stereo unspecified)	> 42 µM (inactive)
COc1ccc(-n2c(-c3ccccc3)nc3ccccc3c2=O)cc1	> 42 µM (inactive)
CCCOc1ccccc1C1NC(=O)NC(C)=C1C(=O)OCc1ccccc1 (stereo unspecified)	> 42 µM (inactive)
O=S(=O)(Nn1c(O)c(C=C2N=c3ccccc3=N2)sc1=S)c1ccccc1	> 42 µM (inactive)
COc1ccc(OC)c(-c2cc(C(=O)Nc3c(C)nn(Cc4ccccc4Cl)c3C)no2)c1	> 42 µM (inactive)
O=c1[nH][nH]c(C(F)(F)F)c1C=NCc1cccs1	> 42 µM (inactive)
CC1CN(CCCOc2ccc([N+](=O)[O-])cc2)CC(C)O1 (stereo unspecified)	> 42 µM (inactive)
CCOc1ccccc1CN1CCN(Cc2ccon2)CC1CCO (stereo unspecified)	> 42 µM (inactive)
CCOC(=O)C1(Cc2cccc(F)c2)CCN(C(=O)c2cnccn2)CC1	> 42 µM (inactive)
Cc1ccc(NC(=O)CN2C(=O)COc3ccc(S(=O)(=O)N4CCOCC4)cc32)cc1F	> 42 µM (inactive)
O=C(Nc1ccc2ccccc2c1)N1CCCN(CCOc2ccccc2)CC1	> 42 µM (inactive)
COc1cc2c(cc1NC(=O)c1cccnc1)oc1ccccc12	> 42 µM (inactive)
CC(=O)N1c2ccc([N+](=O)[O-])cc2NC(=O)CC1C (stereo unspecified)	> 42 µM (inactive)
CCN(CC)S(=O)(=O)c1cc(NC(=O)COC(=O)CCc2nc3ccccc3s2)ccc1C	> 42 µM (inactive)
O=C1CSC(c2ccc(F)c(F)c2)N1c1ccccc1F (stereo unspecified)	> 42 µM (inactive)
Nc1ccc(Oc2ccccc2-c2ccccc2)cc1	20.8 µM
COc1cccc2[nH]c(=O)c(-c3ccccc3)cc12	> 42 µM (inactive)
CCCN1C(=O)c2ccc(C(=O)Nc3nccs3)cc2C1=O	> 42 µM (inactive)
O=C(COc1ccc(F)cc1Cl)N(Cc1nnc(-c2ccccc2Cl)o1)C1CC1	> 42 µM (inactive)

Compound	AC50
COc1ccc(NC(=O)C(c2ccccc2)N2CCN(c3ccccn3)CC2)cc1Cl (stereo unspecified)	> 42 µM (inactive)
O=C(Nc1ccc(OC(F)(F)F)cc1)c1ccc2ccccc2n1	> 42 µM (inactive)
Cc1cccc(NC(=S)NCc2ccco2)c1C	> 42 µM (inactive)
COc1ccccc1N1CCN(CCN2C(=O)C3CCCCN3C2=O)CC1 (stereo unspecified)	> 42 µM (inactive)
CN(C)CCOC(c1ccc(Cl)cc1)c1ccccn1 (stereo unspecified)	> 42 µM (inactive)
O=C(CCCNC(=O)/C(=C/c1ccccc1F)NC(=O)c1ccccc1)OCc1ccccc1	> 42 µM (inactive)
CC1=CC(=O)C=CC1(C)C(Cl)(Cl)Cl (stereo unspecified)	> 42 µM (inactive)
CCOC(=O)Nc1sc(=S)n(C)c1C	> 42 µM (inactive)
COCC(=O)NNC(=O)c1ccccc1OC	> 42 µM (inactive)
Cc1c(C(=O)N2CCOCC2)c(S(=O)(=O)Nc2cccc(Br)c2)c(C)n1C	> 42 µM (inactive)
CCOC(=O)N1CCC(Nc2nc3ccccc3n3nnnc23)CC1	> 42 µM (inactive)
COc1ccc(/C=C/C(=O)N2CCC(C(N)=O)CC2)cc1S(=O)(=O)N1CCOCC1	> 42 µM (inactive)
CC(C)C(=O)NCCSc1c[nH]c2ccccc12	> 42 µM (inactive)
CCOC(=O)c1sc2ncn(C(CC)C(=O)OCC)c(=O)c2c1C (stereo unspecified)	> 42 µM (inactive)
CC1=C/C(=N\OS(=O)(=O)c2ccccc2)C(C(C)C)=CC1=O	0.86 µM
COc1cc(C(=O)Nc2ccc3c(c2)OCCO3)ccc1-n1cnnn1	> 42 µM (inactive)
Clc1ccc(CN(Cc2ccccc2)C(c2cccs2)c2nnnn2C2CCCC2)cc1 (stereo unspecified)	> 42 µM (inactive)
COc1ccc(OCC(=O)O/N=C(\N)Cc2ccc(Cl)cc2)cc1	> 42 µM (inactive)
COc1ccc(C(=O)CC(=O)C(=O)Nc2ccc(C)c(C)c2)cc1	> 42 µM (inactive)
O=C(N/N=C/C(Br)=C/c1ccccc1)c1cccnc1	21.5 µM
N#Cc1c2ccc([N+](=O)[O-])cc2[n+]([O-])n1-c1ccccc1	2.9 µM
Fc1cccc(Cl)c1CSc1nnc(CN2CCOCC2)n1-c1ccccc1	> 42 µM (inactive)
COc1ccc(C(=O)NC(=S)Nc2ccc(CN3CCCCC3)cc2)cc1Cl	> 42 µM (inactive)
Cc1cc(C)c[n+](-c2nc3ccccc3nc2[N-]S(=O)(=O)c2ccc(Br)s2)c1	> 42 µM (inactive)
O=C(CCC(=O)OC(C(=O)c1ccccc1)c1ccccc1)Nc1ccccc1 (stereo unspecified)	> 21 µM (inactive)
O=C(NNC(=O)c1ccccc1O)c1ccco1	> 42 µM (inactive)

Compound	AC50
O=C(COC(=O)/C=C/c1ccco1)Nc1ncc(C(F)(F)F)cc1Cl	> 42 µM (inactive)
CCCCC1=CC2=CC(=O)C(C)(OC(=O)CC)C(=O)C2=CN1CCCOC(C)C (stereo unspecified)	> 42 µM (inactive)
CCn1c(=O)n(CC)c2cc(NC(=O)c3ccccc3Cl)ccc21	> 42 µM (inactive)
Cc1ccc(NC2c3ncccc3C(=O)N2C2CCCCC2)cc1C (stereo unspecified)	32.5 µM
Cn1nc(C(=O)NCCc2ccc(Cl)cc2)c2c1-c1ccccc1S(=O)(=O)C2	> 42 µM (inactive)
O=C(O)c1cccc(N2C(=O)C3C4C=CC(C4=C(c4ccccc4)c4ccccc4)C3C2=O)c1 (stereo unspecified)	> 42 µM (inactive)
NC(=O)CN1CCOCCN(CC(N)=O)CCOCC1	> 42 µM (inactive)
O=C(c1cc(F)ccc1F)C1CCCN(C(=O)c2ccc3nccnc3c2)C1 (stereo unspecified)	> 42 µM (inactive)
COC(=O)C(NC(C)=O)(Nc1nc2ccc(S(C)(=O)=O)cc2s1)C(F)(F)F (stereo unspecified)	> 42 µM (inactive)
COc1ccc(CN2CCCCCC2)cc1	> 42 µM (inactive)
COC(=O)c1cc(Cl)c(NC(=O)C(C)C)cc1OC	> 42 µM (inactive)
CCN(C(=O)CCS(=O)(=O)c1ccc2c(c1)oc(=O)n2C)c1ccc(OC)cc1	> 42 µM (inactive)
O=C1C2CCCCN2C(=O)N1CCCCN1CCN(c2ccccc2Oc2ccccc2)CC1 (stereo unspecified)	> 42 µM (inactive)
COc1ccccc1NC(=O)c1nn(C)cc1Br	> 42 µM (inactive)
CC(C)NC(=O)c1ccccc1-c1ccccc1	> 42 µM (inactive)
COc1ccccc1NC(=O)c1nn(-c2cccc(C(F)(F)F)c2)ccc1=O	> 42 µM (inactive)
Clc1ccc(CSc2nnc(CN3CCOCC3)n2-c2ccccc2)cc1Cl	> 42 µM (inactive)
COc1ccccc1CNCc1cc(OC)c(OC)c(OC)c1	> 42 µM (inactive)
Cc1cccc(N(C(=O)c2ccc(CN3CCOCC3)o2)C(C(=O)NC2CCCCC2)c2ccc(F)cc2)c1 (stereo unspecified)	> 42 µM (inactive)
CCCCn1c(/C=N/Nc2nc3ccccc3[nH]2)nc2ccccc21	3.98 µM
COc1ccc(-c2nc(C#N)c(NC(C)c3ccccc3)o2)cc1OC (stereo unspecified)	> 42 µM (inactive)
O=C(Cc1cccs1)Nc1nnc(-c2ccncc2)s1	> 42 µM (inactive)
CCN(C(=O)COC(=O)c1c(-c2ccccc2)noc1C)c1c(N)n(Cc2ccccc2)c(=O)[nH]c1=O	> 42 µM (inactive)
COC(=O)C12CCC3(SCCS3)C(C(=O)OC)(CCC13SCCS3)C2	7.24 µM
Cc1nc2ccc(S(=O)(=O)NC(CC(C)C)C(=O)O)cc2s1 (stereo unspecified)	> 42 µM (inactive)
CCCCN(C)C(=O)c1cc2c(Cl)nc3ccccc3c2s1	> 42 µM (inactive)

Compound	AC50
Cc1ccc2nc(/C(C#N)=C\c3cc(O)ccc3[N+](=O)[O-])[nH]c2c1	> 42 µM (inactive)
CCc1nccn1S(=O)(=O)c1cc(OC)ccc1OC	> 42 µM (inactive)
CCOc1ccccc1N(CC(=O)Nc1ccccc1C(=O)N1CCCC1)S(C)(=O)=O	> 42 µM (inactive)
Cc1ccc(S(=O)(=O)NCCS(=O)(=O)N2CCN(c3ccc(F)cc3)CC2)cc1	> 42 µM (inactive)
O=c1[nH]cnc2cc(Cl)ccc12	> 21 µM (inactive)
CCOC(=O)C1CCN(C(=O)c2ccc3c(c2)NC(=O)/C(=C/c2ccccc2)S3)CC1	> 42 µM (inactive)
CCCCNC(=O)C1C2C=CC3(CN(Cc4ccc(C)cc4)C(=O)C13)O2 (stereo unspecified)	> 42 µM (inactive)
O=C(CC(c1ccccc1)c1ccccc1)NCCOCc1ccccc1	> 42 µM (inactive)
CN(C)c1oc(-c2ccccc2Cl)nc1S(=O)(=O)c1ccccc1	> 42 µM (inactive)
Cc1cccc(C(=O)NCC(=O)N2CCN(c3ccc(Cl)cc3)CC2)c1	> 42 µM (inactive)
O=S(=O)(Nc1ccc(-c2nc3cccnc3s2)cc1)c1cc(F)ccc1F	> 21 µM (inactive)
NC(=S)N/N=C/c1cccc(O)c1O	> 42 µM (inactive)
O=C(Nc1nc2ccccc2s1)c1cccc(S(=O)(=O)N2CCc3ccccc32)c1	> 42 µM (inactive)
Cc1ccc(-c2nc3c(=O)n(-c4ccccc4)c4c(c(=O)n(C)c(=O)n4C)c3o2)cc1	> 42 µM (inactive)
COc1cccc(OC)c1C(=O)Nc1ccc2c(c1)n(C)c(=O)n2C	> 42 µM (inactive)
Cc1cc(C)cc(NC(=O)CS(=O)(=O)c2ccccc2)c1	> 42 µM (inactive)
COC(=O)CN(C(=S)Nc1ccc(F)cc1)C1CC(=O)N(c2ccccc2)C1=O (stereo unspecified)	> 42 µM (inactive)
C/C(O)=C(\N=Nc1cc(C)ccc1O)C(N)=O	> 42 µM (inactive)
COc1ccc(NC(=O)CC(C)C)c(OC)c1	> 42 µM (inactive)
O=C(CSc1nnc(NC(=O)CN2CCOCC2)s1)Nc1ccccc1	> 42 µM (inactive)
CCc1nc2ccccc2c(C(=O)OC2CCCCC2=O)c1C (stereo unspecified)	> 42 µM (inactive)
Cc1cccc(OCCC(=O)Nc2ccc(F)c(F)c2)c1	> 42 µM (inactive)
CC(C)(C)NC(=O)C(c1cccs1)N(Cc1cccs1)C(=O)c1ccc(CN2CCOCC2)o1 (stereo unspecified)	> 42 µM (inactive)
